Values belong to the compound of their own block, whether it stands above or below them. Calls of active or inactive are those of the source.
Key:
[1] = target: cAMP-dependent protein kinase catalytic subunit PRKX (Homo sapiens, UniProt P51817); format: functional
[2] = target: Platelet-derived growth factor receptor alpha (Homo sapiens, UniProt P16234); assay: Navigating the Kinome. Panel member name: PDGFRA; format: functional
[3] = target: Dual specificity tyrosine-phosphorylation-regulated kinase 1A (Homo sapiens, UniProt Q13627); format: functional;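 note: measured against DYRK1A as one member of a broad kinome profiling panel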
[4] = target: Megakaryocyte-associated tyrosine-protein kinase (Homo sapiens, UniProt P42679); format: functional;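 note: affinity measured as one member of a kinase panel (Navigating the Kinome) against MATK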
Megakaryocyte-associated tyrosine-protein kinase, sequence (P42679 whole entry): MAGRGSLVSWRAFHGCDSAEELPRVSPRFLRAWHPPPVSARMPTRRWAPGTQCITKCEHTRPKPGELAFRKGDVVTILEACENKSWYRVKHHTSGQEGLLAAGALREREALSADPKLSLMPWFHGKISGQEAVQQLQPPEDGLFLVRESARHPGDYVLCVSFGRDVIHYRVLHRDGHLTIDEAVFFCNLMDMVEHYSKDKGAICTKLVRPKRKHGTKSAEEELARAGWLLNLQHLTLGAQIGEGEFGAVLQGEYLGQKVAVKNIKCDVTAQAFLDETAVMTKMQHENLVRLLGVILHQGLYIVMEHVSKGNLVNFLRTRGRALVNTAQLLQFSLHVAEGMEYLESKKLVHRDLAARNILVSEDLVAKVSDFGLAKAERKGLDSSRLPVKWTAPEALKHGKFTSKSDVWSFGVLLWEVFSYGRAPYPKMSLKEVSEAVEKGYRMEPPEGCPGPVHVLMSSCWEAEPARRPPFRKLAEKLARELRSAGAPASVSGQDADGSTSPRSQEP

[5] = target: RAC-gamma serine/threonine-protein kinase (Homo sapiens, UniProt Q9Y243); format: functional
[6] = target: Serine/threonine-protein kinase PLK4 (Homo sapiens, UniProt O00444); format: functional;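 note: PLK4 measured as one member of a kinome-wide kinase profiling panel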
[7] = target: Ribosomal protein S6 kinase beta-1 (Homo sapiens, UniProt P23443); format: functional;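 note: measured as one member of a kinome-wide profiling panel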
Ribosomal protein S6 kinase beta-1, sequence (P23443 whole entry): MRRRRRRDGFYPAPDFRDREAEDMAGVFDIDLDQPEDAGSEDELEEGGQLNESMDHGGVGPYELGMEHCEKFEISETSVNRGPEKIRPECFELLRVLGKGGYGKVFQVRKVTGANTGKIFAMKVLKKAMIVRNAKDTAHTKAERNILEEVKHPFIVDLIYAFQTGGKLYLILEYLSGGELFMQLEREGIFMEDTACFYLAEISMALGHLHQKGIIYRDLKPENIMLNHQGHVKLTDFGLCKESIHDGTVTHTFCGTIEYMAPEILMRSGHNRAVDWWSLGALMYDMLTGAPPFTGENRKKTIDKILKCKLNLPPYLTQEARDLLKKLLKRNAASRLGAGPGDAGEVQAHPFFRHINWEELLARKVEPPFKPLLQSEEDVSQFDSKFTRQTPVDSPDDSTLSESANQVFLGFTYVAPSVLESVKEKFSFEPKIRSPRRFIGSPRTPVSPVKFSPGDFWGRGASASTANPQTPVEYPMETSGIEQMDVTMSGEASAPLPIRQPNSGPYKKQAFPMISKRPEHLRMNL

[8] = target: Calcium/calmodulin-dependent protein kinase type II subunit gamma (Homo sapiens, UniProt Q13555); format: functional
[9] = target: Tyrosine-protein kinase SYK (Homo sapiens, UniProt P43405); format: functional
[10] = target: Serine/threonine-protein kinase Chk2 (Homo sapiens, UniProt O96017); format: functional;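 note: CHEK2 entry within a kinome-wide screening panel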
[11] = target: MAP kinase-activated protein kinase 2 (Homo sapiens, UniProt P49137); format: functional;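 note: measured as one member of a kinome-wide kinase panel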
MAP kinase-activated protein kinase 2, sequence (P49137 whole entry): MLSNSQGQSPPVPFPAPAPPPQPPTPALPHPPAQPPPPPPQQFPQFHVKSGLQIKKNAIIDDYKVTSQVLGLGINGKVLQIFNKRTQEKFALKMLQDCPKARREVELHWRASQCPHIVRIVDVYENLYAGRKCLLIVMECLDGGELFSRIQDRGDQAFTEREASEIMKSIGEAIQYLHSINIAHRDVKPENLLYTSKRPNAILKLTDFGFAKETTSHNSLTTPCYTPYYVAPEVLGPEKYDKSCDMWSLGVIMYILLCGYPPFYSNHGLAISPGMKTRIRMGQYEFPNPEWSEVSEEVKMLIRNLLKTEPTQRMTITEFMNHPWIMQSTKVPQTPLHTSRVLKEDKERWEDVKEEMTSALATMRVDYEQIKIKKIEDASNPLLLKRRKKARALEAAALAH

[12] = target: Serine/threonine-protein kinase PAK 1 (Homo sapiens, UniProt Q13153); format: functional
Serine/threonine-protein kinase PAK 1, sequence (Q13153 whole entry): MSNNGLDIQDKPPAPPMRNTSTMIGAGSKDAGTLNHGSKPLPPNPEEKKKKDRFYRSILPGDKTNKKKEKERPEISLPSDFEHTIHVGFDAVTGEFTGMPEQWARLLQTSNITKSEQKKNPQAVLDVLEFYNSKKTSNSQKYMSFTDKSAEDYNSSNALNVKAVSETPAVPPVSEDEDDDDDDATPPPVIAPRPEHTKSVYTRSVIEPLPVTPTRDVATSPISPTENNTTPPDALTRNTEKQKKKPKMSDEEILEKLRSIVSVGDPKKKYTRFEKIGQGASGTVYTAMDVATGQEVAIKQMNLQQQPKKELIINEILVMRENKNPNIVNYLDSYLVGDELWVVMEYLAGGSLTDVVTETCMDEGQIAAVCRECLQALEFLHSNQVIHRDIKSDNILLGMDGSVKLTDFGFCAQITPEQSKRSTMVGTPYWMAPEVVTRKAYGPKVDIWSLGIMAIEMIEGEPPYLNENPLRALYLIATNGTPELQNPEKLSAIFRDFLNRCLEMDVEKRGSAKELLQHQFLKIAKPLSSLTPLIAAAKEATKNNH

[13] = target: Calcium/calmodulin-dependent protein kinase type II subunit delta (Homo sapiens, UniProt Q13557); format: functional
[14] = target: Casein kinase I isoform gamma-1 (Homo sapiens, UniProt Q9HCP0); format: functional;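 note: measured as the CSNK1G1 member of a kinome profiling panel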
Casein kinase I isoform gamma-1, sequence (Q9HCP0 whole entry, canonical isoform): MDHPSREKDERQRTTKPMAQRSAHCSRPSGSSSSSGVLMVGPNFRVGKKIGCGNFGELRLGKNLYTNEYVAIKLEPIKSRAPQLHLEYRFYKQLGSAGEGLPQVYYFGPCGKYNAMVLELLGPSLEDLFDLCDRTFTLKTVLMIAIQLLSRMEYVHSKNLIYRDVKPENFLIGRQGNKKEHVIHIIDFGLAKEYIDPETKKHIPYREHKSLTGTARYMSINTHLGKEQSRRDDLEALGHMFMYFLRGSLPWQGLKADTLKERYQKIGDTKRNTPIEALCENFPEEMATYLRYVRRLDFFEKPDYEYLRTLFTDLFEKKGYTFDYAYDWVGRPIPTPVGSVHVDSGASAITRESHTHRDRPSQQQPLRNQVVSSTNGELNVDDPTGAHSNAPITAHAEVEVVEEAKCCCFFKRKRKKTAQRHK

[15] = target: Tyrosine-protein kinase Lyn (Homo sapiens, UniProt P07948); format: functional;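 note: lyn as one member of a kinase panel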
[16] = target: Tyrosine-protein kinase ITK/TSK (Homo sapiens, UniProt Q08881); format: functional;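 note: affinity for ITK measured as one member of a broad kinase panel profiling binding across the kinome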
[17] = target: Serine/threonine-protein kinase N2 (Homo sapiens, UniProt Q16513); format: functional
[18] = target: Tyrosine-protein kinase Blk (Homo sapiens, UniProt P51451); format: functional;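 note: obtained as one member of a kinome-wide kinase assay panel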
Tyrosine-protein kinase Blk, sequence (P51451 whole entry): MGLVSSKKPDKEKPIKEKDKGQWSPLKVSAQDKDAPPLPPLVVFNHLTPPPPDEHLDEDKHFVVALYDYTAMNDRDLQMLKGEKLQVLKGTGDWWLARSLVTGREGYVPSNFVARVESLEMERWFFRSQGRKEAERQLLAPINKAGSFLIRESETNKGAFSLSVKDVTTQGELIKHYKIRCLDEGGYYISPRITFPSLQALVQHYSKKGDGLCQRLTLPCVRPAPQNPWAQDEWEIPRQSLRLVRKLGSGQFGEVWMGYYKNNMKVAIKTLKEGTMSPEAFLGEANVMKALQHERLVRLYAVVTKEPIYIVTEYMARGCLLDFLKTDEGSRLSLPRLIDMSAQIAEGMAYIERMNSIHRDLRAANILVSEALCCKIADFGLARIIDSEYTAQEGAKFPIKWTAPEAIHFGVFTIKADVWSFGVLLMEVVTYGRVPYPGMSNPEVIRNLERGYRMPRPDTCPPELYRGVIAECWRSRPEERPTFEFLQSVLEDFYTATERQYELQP

[19] = target: MAP/microtubule affinity-regulating kinase 3 (Homo sapiens, UniProt P27448); format: functional;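 note: MARK3 affinity measured as one member of a kinome panel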
[20] = target: Calcium/calmodulin-dependent protein kinase type II subunit beta (Homo sapiens, UniProt Q13554); format: functional
Calcium/calmodulin-dependent protein kinase type II subunit beta, sequence (Q13554 whole entry): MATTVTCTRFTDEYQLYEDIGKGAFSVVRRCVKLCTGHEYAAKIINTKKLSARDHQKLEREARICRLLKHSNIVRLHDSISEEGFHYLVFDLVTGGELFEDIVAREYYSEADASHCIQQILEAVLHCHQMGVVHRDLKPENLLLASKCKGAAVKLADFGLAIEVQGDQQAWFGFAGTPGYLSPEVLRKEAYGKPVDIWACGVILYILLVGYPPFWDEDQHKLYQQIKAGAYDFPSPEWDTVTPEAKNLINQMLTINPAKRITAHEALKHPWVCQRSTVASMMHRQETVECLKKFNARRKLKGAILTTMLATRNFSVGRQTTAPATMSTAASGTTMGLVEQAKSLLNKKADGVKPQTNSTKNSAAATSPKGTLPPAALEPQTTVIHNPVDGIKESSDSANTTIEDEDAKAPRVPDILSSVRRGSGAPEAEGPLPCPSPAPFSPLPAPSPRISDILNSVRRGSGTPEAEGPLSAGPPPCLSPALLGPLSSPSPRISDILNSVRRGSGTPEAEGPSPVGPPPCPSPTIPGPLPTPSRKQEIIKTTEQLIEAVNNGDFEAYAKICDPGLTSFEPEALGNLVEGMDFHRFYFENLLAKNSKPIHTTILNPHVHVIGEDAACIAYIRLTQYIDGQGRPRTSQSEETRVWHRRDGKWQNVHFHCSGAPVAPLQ

Misshapen-like kinase 1 = Misshapen-like kinase 1 (Homo sapiens, UniProt Q8N4C8); format: functional;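 note: kinome panel screen with MINK as the panel member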
[21] = target: Dual specificity tyrosine-phosphorylation-regulated kinase 4 (Homo sapiens, UniProt Q9NR20); format: functional
[22] = target: Protein kinase C iota type (Homo sapiens, UniProt P41743); format: functional;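 note: measured within a kinome-wide kinase panel, PRKCI as panel member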
[23] = target: Maternal embryonic leucine zipper kinase (Homo sapiens, UniProt Q14680); format: functional
[24] = target: Interleukin-1 receptor-associated kinase 4 (Homo sapiens, UniProt Q9NWZ3); format: functional
[25] = target: Calcium/calmodulin-dependent protein kinase type 1 (Homo sapiens, UniProt Q14012); format: functional
[26] = target: Homeodomain-interacting protein kinase 4 (Homo sapiens, UniProt Q8NE63); format: functional
Homeodomain-interacting protein kinase 4, sequence (Q8NE63 whole entry): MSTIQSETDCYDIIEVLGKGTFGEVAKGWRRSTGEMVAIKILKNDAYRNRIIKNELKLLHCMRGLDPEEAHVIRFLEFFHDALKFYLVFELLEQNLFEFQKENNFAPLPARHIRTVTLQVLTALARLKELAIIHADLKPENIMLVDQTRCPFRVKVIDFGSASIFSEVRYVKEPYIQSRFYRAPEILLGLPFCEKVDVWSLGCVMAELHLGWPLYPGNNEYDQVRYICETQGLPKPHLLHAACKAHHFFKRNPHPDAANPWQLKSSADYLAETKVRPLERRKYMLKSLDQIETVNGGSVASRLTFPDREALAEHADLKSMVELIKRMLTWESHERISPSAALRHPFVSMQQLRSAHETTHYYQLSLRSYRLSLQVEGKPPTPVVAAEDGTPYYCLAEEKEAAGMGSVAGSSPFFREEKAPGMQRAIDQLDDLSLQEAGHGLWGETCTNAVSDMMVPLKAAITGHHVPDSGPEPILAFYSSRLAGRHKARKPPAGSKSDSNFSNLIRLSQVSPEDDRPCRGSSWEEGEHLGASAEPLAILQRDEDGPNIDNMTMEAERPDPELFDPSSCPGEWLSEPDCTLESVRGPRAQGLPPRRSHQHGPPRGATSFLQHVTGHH

[27] = target: Serine/threonine-protein kinase PLK1 (Homo sapiens, UniProt P53350); format: functional;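 note: PLK1 measured as one member of a kinome-wide profiling panel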
[28] = target: Mitogen-activated protein kinase 12 (Homo sapiens, UniProt P53778); format: functional;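 note: measured as one member of a kinome-wide kinase profiling panel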
[29] = target: Lymphokine-activated killer T-cell-originated protein kinase (Homo sapiens, UniProt Q96KB5); format: functional;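 note: value comes from a kinase panel screen in which TOPK was one of the panel members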
Lymphokine-activated killer T-cell-originated protein kinase, sequence (Q96KB5 whole entry): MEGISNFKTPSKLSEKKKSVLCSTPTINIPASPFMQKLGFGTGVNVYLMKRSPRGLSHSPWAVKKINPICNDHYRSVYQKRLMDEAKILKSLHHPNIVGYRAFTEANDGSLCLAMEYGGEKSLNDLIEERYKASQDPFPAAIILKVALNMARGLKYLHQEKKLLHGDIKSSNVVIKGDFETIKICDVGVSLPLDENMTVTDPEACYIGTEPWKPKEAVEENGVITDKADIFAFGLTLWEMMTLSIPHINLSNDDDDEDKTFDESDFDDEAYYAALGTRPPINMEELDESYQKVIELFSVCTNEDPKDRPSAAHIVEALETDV

[30] = target: Serine/threonine-protein kinase MRCK alpha (Homo sapiens, UniProt Q5VT25); format: functional
[31] = target: Serine/threonine-protein kinase BRSK1 (Homo sapiens, UniProt Q8TDC3); format: functional;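 note: measured within a kinome-wide kinase panel, with the target listed as KIAA1811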
[32] = target: Tyrosine-protein kinase FRK (Homo sapiens, UniProt P42685); format: functional;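 note: FRK tested as one member of a kinome panel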
[33] = target: T1, Mannose-6-phosphate isomerase (Homo sapiens, UniProt P34949); assay: MPI enzyme activity inhibition – biochemical, fluorescence intensity, coupled assay, primary screen (AID 1209)
T1 sequence (P34949 whole entry): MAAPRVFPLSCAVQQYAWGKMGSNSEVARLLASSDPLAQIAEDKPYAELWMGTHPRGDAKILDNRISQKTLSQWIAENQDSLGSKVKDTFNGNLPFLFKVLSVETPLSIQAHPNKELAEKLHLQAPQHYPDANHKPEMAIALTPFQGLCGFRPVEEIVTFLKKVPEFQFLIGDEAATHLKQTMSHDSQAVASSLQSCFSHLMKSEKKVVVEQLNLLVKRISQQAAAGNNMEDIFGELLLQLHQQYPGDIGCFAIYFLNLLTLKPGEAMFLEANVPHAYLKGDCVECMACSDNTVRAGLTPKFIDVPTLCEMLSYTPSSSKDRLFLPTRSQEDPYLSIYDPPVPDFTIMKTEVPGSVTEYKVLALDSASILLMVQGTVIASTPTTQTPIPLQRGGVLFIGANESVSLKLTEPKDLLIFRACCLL

cAMP-dependent protein kinase catalytic subunit PRKX, sequence (P51817 whole entry): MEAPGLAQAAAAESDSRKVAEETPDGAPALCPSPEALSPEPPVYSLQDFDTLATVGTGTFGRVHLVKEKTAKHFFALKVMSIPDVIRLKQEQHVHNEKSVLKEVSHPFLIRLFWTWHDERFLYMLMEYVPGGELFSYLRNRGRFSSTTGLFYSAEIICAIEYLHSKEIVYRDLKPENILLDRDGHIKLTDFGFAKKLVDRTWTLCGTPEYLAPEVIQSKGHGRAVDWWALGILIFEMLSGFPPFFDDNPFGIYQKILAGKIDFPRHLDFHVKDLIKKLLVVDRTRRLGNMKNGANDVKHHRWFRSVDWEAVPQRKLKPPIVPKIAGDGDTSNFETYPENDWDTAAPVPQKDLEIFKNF

Ki [1]: > 3160 nM (inactive)
Ki [2]: > 2510 nM (inactive)
Ki [3]: > 2000 nM (inactive)
SMILES: [2H]C([2H])([2H])Oc1cccc(C(C)NC(=O)c2sc(-c3ccncc3)nc2C)c1 (centres undefined)

Ki [4]: > 2000 nM (inactive)
Ki [5]: 3.98 nM (active)
Ki [6]: 1260 nM (active)
Ki [7]: 25.1 nM (active)
Ki [8]: 15.8 nM (active)
Ki [9]: > 1580 nM (inactive)
Ki [10]: 398 nM (active)
Ki [11]: 3980 nM (active)
Ki [12]: 794 nM (active)
Ki [13]: 12.6 nM (active)
Ki [14]: 126 nM (active)
Ki [15]: > 1580 nM (inactive)
Ki [16]: > 1580 nM (inactive)
Ki [17]: 20 nM (active)
Ki [18]: > 1580 nM (inactive)
Ki [19]: 316 nM (active)
Ki [20]: 251 nM (active)
Ki (Misshapen-like kinase 1): 20 nM (active)
Ki [21]: 1000 nM (active)
Ki [22]: 1000 nM (active)
Ki [23]: 200 nM (active)
Ki [24]: 126 nM (active)
Ki [25]: 251 nM (active)
Ki [26]: 2510 nM (active)
Ki [27]: > 7940 nM (inactive)
Ki [28]: 398 nM (active)
Ki [30]: 7.94 nM (active)
Ki [31]: 3160 nM (active)
Ki [32]: > 2510 nM (inactive)
SMILES: Cc1n[nH]c2ccc(-c3cncc(OCC(N)Cc4ccc(Cl)c(Cl)c4)c3)cc12 (centres undefined)
Ki [29]: 3980 nM (active)

IC50 [33]: > 50000 nM (not active)
SMILES: COc1ccc(-n2c(NC(=O)c3ccco3)c(C#N)c3nc4ccccc4nc32)cc1

Source: ChEMBL document CHEMBL1201862, “PubChem BioAssay data set” (2004)
